In patent publication US9605078B2, “Pictet-Spengler ligation for protein chemical modification” (THE REGENTS OF THE UNIVERSITY OF CALIFORNIA, priority 2012, dated 2017):

Assay: Small molecule hydrolysis of model oxime and oxacarboline, followed by liquid chromatography
Assay type: physicochemical
Settings: 1 μM, buffered solutions at pH 4.5 or 5.0, room temperature, over two days
Procedure: Small molecule hydrolysis: Hydrolysis solutions contained 1 μM 5a or 5b, 25 μM phenylalanine as an internal standard, and 5 mM sodium acetate at the appropriate pH. The solutions were incubated at room temperature and 50 μL aliquots were repeatedly analyzed by liquid chromatography on an Agilent 1200 instrument using an Agilent Poroshell 120 EC-C18 reverse phase column (4.6×50 mm) with a solvent flow rate of 0.4 mL/min. The following gradient was employed (time (min), % MeCN in H2O with 0.1% TFA): 0, 5; 10, 95; 12, 95; 14, 5; 19, 5. The time of the first injection for each solution was assigned as t=0. Integrals of the absorption peaks for 5a and 5b at 440 nm were normalized against the phenylalanine peak for each injection.

hydrolysis of conjugate (liquid chromatography) | conjugate remained intact (liquid chromatography) | SMILES
majority of oxime 5a hydrolyzed | – | O=C(NCCC=NOCc1ccccc1)c1ccc(-c2c3ccc(=O)cc-3oc3cc(O)ccc23)c(C(=O)O)c1 (racemic) [Compound 5a, 5-((3-((Benzyloxy)imino)propyl)carbamoyl)-2-(6-hydroxy-3-oxo-3H-xanthen-9-yl)benzoic acid]
– | over 90% | CN1OCc2c(c3ccccc3n2CCC(=O)O)C1CCNC(=O)c1ccc(-c2c3ccc(=O)cc-3oc3cc(O)ccc23)c(C(=O)O)c1 (centres unmarked) [Compound 5b, 5-((2-(5-(2-Carboxyethyl)-2-methyl-1,2,4,5-tetrahydro-[1,2]oxazino [5,4-b]indol-1-yl)ethyl)carbamoyl)-2-(6-hydroxy-3-oxo-3H-xanthen-9-yl)benzoic acid]
